Laboratory results published in PubChem BioAssay AID2060609 (Molecular Pharmacology Branch, DTP, NCI, 2025).
“And” between values parts separate entries of the source, which are not always exact repeats. Equal entries are not always repeated.

System: 855422-203-R-J1-PDC complex spheroids, viability
Test: Anticancer human tumor 855422-203-R-J1-PDC patient-derived bladder carcinoma cell line growth inhibition [CLK]
Details: for viability, T/C: stronger effect = lower value
Summary of the method: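 Multi-cell-type spheroids combined patient-derived tumor cells with HUVEC endothelial cells and human mesenchymal stem cells. Paired agents were dosed in half-log steps down from about clinical Cmax, or from 10 microM where Cmax was unknown.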

[1] = curve of first compound, second compound 0.0316 µM
[2] = curve of first compound, second compound 0.1 µM
[3] = curve of first compound, second compound 0.316 µM
[4] = curve of first compound, second compound 1 µM
[5] = curve of first compound, second compound 3.16 µM
[6] = curve of first compound, second compound 10 µM
[7] = second compound 0.0316 µM, first compound 0.0316 µM
[8] = second compound 0.0316 µM, first compound 0.1 µM
[9] = second compound 0.0316 µM, first compound 0.316 µM
[10] = second compound 0.0316 µM, first compound 1 µM
[11] = second compound 0.0316 µM, first compound 3.16 µM
[12] = second compound 0.0316 µM, first compound 10 µM
[13] = second compound 0.1 µM, first compound 0.0316 µM
[14] = second compound 0.1 µM, first compound 0.1 µM
[15] = second compound 0.1 µM, first compound 0.316 µM
[16] = second compound 0.1 µM, first compound 1 µM
[17] = second compound 0.1 µM, first compound 3.16 µM
[18] = second compound 0.1 µM, first compound 10 µM
[19] = second compound 0.316 µM, first compound 0.0316 µM
[20] = second compound 0.316 µM, first compound 0.1 µM
[21] = second compound 0.316 µM, first compound 0.316 µM
[22] = second compound 0.316 µM, first compound 1 µM
[23] = second compound 0.316 µM, first compound 3.16 µM
[24] = second compound 0.316 µM, first compound 10 µM
[25] = second compound 1 µM, first compound 0.0316 µM
[26] = second compound 1 µM, first compound 0.1 µM
[27] = second compound 1 µM, first compound 0.316 µM
[28] = second compound 1 µM, first compound 1 µM
[29] = second compound 1 µM, first compound 3.16 µM
[30] = second compound 1 µM, first compound 10 µM
[31] = second compound 3.16 µM, first compound 0.0316 µM
[32] = second compound 3.16 µM, first compound 0.1 µM
[33] = second compound 3.16 µM, first compound 0.316 µM
[34] = second compound 3.16 µM, first compound 1 µM
[35] = second compound 3.16 µM, first compound 3.16 µM
[36] = second compound 3.16 µM, first compound 10 µM
[37] = second compound 10 µM, first compound 0.0316 µM
[38] = second compound 10 µM, first compound 0.1 µM
[39] = second compound 10 µM, first compound 0.316 µM
[40] = second compound 10 µM, first compound 1 µM
[41] = second compound 10 µM, first compound 3.16 µM
[42] = second compound 10 µM, first compound 10 µM
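Note: spheroids exposed to drugs for seven days before readout.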
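Throughout, for viability, T/C: 100% = DMSO vehicle control wells.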

In the case of CC(CO)NC(=O)c1cc(-c2ccc(Cl)cc2)nn(-c2cnn(C)c2)c1=O (configuration not stated), the viability, T/C (compound 0.0316 µM) is reported as 92.5% and 94.5%, the viability, T/C (compound 0.1 µM) is reported as 89.1% and 85.5% and the viability, T/C (compound 0.316 µM) is reported as 94.6% and 92.7%. For the same compound, the viability, T/C (compound 1 µM) was 93.5% and 99.6%, the viability, T/C (compound 3.16 µM) was 110% and 99.5% and the viability, T/C (compound 10 µM) was 82.2% and 94%. For the same compound, the IC50 (curve of compound) was > 10000 nM.
In the case of COc1ccc([C@@H](O)c2cc(-c3ncnc4cc(N5CCOCC5)ccc34)c(F)cc2Cl)nn1 + CNC(=O)c1ccc(Nc2nc(OC3CCCC3)c3c(-c4ccc5nc(C)oc5c4)c[nH]c3n2)c(OC)c1, the IC50 [1] is reported as 5740 nM, the IC50 [2] is reported as 1460 nM and the IC50 [3] is reported as < 31.6 nM. The IC50 [4] was < 31.6 nM, the IC50 [5] was < 31.6 nM and the IC50 [6] was < 31.6 nM. It also gave a viability, T/C [7] of 78.5%, a viability, T/C [8] of 118% and a viability, T/C [9] of 95.2%. The viability, T/C [10] was 82.7%, the viability, T/C [11] was 71.8% and the viability, T/C [12] was 31.1%. The viability, T/C [13] was 55.8%, the viability, T/C [14] was 55.2% and the viability, T/C [15] was 44.4%. It also gave a viability, T/C [16] of 47.9%, a viability, T/C [17] of 48.9% and a viability, T/C [18] of 22.9%. For the same compound, the viability, T/C [19] was 24%, the viability, T/C [20] was 23.9% and the viability, T/C [21] was 16.8%. For the same compound, the viability, T/C [22] was 19.2%, the viability, T/C [23] was 16.3% and the viability, T/C [24] was 12.3%. For the same compound, the viability, T/C [25] was 23.3%, the viability, T/C [26] was 24.6% and the viability, T/C [27] was 18.3%. The viability, T/C [28] was 17.4%, the viability, T/C [29] was 19.5% and the viability, T/C [30] was 12.1%. For the same compound, the viability, T/C [31] was 17.7%, the viability, T/C [32] was 17.7% and the viability, T/C [33] was 16.3%. It also gave a viability, T/C [34] of 22.1%, a viability, T/C [35] of 16.6% and a viability, T/C [36] of 12.4%. It also gave a viability, T/C [37] of 22.1%, a viability, T/C [38] of 20.9% and a viability, T/C [39] of 25.1%. It also gave a viability, T/C [40] of 18.4%, a viability, T/C [41] of 14.4% and a viability, T/C [42] of 8.91%.
With CC1COCCN1c1cc(C2(S(C)(=N)=O)CC2)nc(-c2ccnc3[nH]ccc23)n1 (configuration not stated) + CN1CCN(c2cc(C(=O)Nc3cc4cc(-c5cnn(C)c5)ccc4cn3)ccn2)CC1 the IC50 [1] was 2250 nM, the IC50 [2] was 1850 nM and the IC50 [3] was < 31.6 nM. For the same compound, the IC50 [4] was < 31.6 nM, the IC50 [5] was < 31.6 nM and the IC50 [6] was < 31.6 nM. The viability, T/C [7] was 103%, the viability, T/C [8] was 117% and the viability, T/C [9] was 89.6%. It also gave a viability, T/C [10] of 93%, a viability, T/C [11] of 32% and a viability, T/C [12] of 10.6%. The viability, T/C [13] was 70.6%, the viability, T/C [14] was 91% and the viability, T/C [15] was 80.3%. It also gave a viability, T/C [16] of 80.1%, a viability, T/C [17] of 24% and a viability, T/C [18] of 12.2%. The viability, T/C [19] was 9.48%, the viability, T/C [20] was 14% and the viability, T/C [21] was 7.7%. It also gave a viability, T/C [22] of 6%, a viability, T/C [23] of 5.18% and a viability, T/C [24] of 3.25%. The viability, T/C [25] was 0.34%, the viability, T/C [26] was 0.27% and the viability, T/C [27] was 1.14%. It also gave a viability, T/C [28] of 0.17%, a viability, T/C [29] of 0.14% and a viability, T/C [30] of 0.19%. It also gave a viability, T/C [31] of 0.75%, a viability, T/C [32] of 0.61% and a viability, T/C [33] of 0.62%. For the same compound, the viability, T/C [34] was 0.51%, the viability, T/C [35] was 0.85% and the viability, T/C [36] was 0.37%. The viability, T/C [37] was 0.44%, the viability, T/C [38] was 0.31% and the viability, T/C [39] was 0.9%. The viability, T/C [40] was 0.36%, the viability, T/C [41] was 1.72% and the viability, T/C [42] was 0.63%.
In the case of CC(C)CC(NC(=O)C(Cc1ccccc1)NC(=O)c1cnccn1)B(O)O (configuration not stated) + CN1CCN(c2cc(C(=O)Nc3cc4cc(-c5cnn(C)c5)ccc4cn3)ccn2)CC1, the IC50 [1] is reported as < 0.949 nM, the IC50 [2] is reported as < 0.949 nM and the IC50 [3] is reported as < 0.949 nM. For the same compound, the IC50 [4] was < 0.949 nM, the IC50 [5] was < 0.949 nM and the IC50 [6] was < 0.949 nM. For the same compound, the viability, T/C (second compound 0.0316 µM, first compound 0.000949 µM) was 2.28%, the viability, T/C (second compound 0.0316 µM, first compound 0.003 µM) was 0.31% and the viability, T/C (second compound 0.0316 µM, first compound 0.00949 µM) was 0.27%. The viability, T/C (second compound 0.0316 µM, first compound 0.03 µM) was 0.43%, the viability, T/C (second compound 0.0316 µM, first compound 0.0949 µM) was 0.41% and the viability, T/C (second compound 0.0316 µM, first compound 0.3 µM) was 0.27%. The viability, T/C (second compound 0.1 µM, first compound 0.000949 µM) was 2.61%, the viability, T/C (second compound 0.1 µM, first compound 0.003 µM) was 0.37% and the viability, T/C (second compound 0.1 µM, first compound 0.00949 µM) was 0.29%. For the same compound, the viability, T/C (second compound 0.1 µM, first compound 0.03 µM) was 0.43%, the viability, T/C (second compound 0.1 µM, first compound 0.0949 µM) was 0.35% and the viability, T/C (second compound 0.1 µM, first compound 0.3 µM) was 0.28%. For the same compound, the viability, T/C (second compound 0.316 µM, first compound 0.000949 µM) was 0.57%, the viability, T/C (second compound 0.316 µM, first compound 0.003 µM) was 0.22% and the viability, T/C (second compound 0.316 µM, first compound 0.00949 µM) was 0.27%. For the same compound, the viability, T/C (second compound 0.316 µM, first compound 0.03 µM) was 0.27%, the viability, T/C (second compound 0.316 µM, first compound 0.0949 µM) was 1.06% and the viability, T/C (second compound 0.316 µM, first compound 0.3 µM) was 0.19%. The viability, T/C (second compound 1 µM, first compound 0.000949 µM) was 0.21%, the viability, T/C (second compound 1 µM, first compound 0.003 µM) was 0.19% and the viability, T/C (second compound 1 µM, first compound 0.00949 µM) was 0.12%. For the same compound, the viability, T/C (second compound 1 µM, first compound 0.03 µM) was 0.19%, the viability, T/C (second compound 1 µM, first compound 0.0949 µM) was 0.16% and the viability, T/C (second compound 1 µM, first compound 0.3 µM) was 0.16%. For the same compound, the viability, T/C (second compound 3.16 µM, first compound 0.000949 µM) was 0.36%, the viability, T/C (second compound 3.16 µM, first compound 0.003 µM) was 0.15% and the viability, T/C (second compound 3.16 µM, first compound 0.00949 µM) was 1.95%. For the same compound, the viability, T/C (second compound 3.16 µM, first compound 0.03 µM) was 0.11%, the viability, T/C (second compound 3.16 µM, first compound 0.0949 µM) was 0.78% and the viability, T/C (second compound 3.16 µM, first compound 0.3 µM) was 0.11%. For the same compound, the viability, T/C (second compound 10 µM, first compound 0.000949 µM) was 0.29%, the viability, T/C (second compound 10 µM, first compound 0.003 µM) was 0.19% and the viability, T/C (second compound 10 µM, first compound 0.00949 µM) was 2.1%. The viability, T/C (second compound 10 µM, first compound 0.03 µM) was 0.2%, the viability, T/C (second compound 10 µM, first compound 0.0949 µM) was 0.22% and the viability, T/C (second compound 10 µM, first compound 0.3 µM) was 0.32%.
With C=CC(=O)N1CCN(c2nc(=O)n(-c3c(C)ccnc3C(C)C)c3nc(-c4c(O)cccc4F)c(F)cc23)C(C)C1 (configuration not stated) the viability, T/C (compound 0.0316 µM) was 91.5% and 117%, the viability, T/C (compound 0.1 µM) was 95.7% and 105% and the viability, T/C (compound 0.316 µM) was 121% and 122%. For the same compound, the viability, T/C (compound 1 µM) was 131% and 149%, the viability, T/C (compound 3.16 µM) was 174% and 201% and the viability, T/C (compound 10 µM) was 161% and 180%. For the same compound, the IC50 (curve of compound) was > 10000 nM.
CCCS(=O)(=O)Nc1ccc(F)c(C(=O)c2c[nH]c3ncc(-c4ccc(Cl)cc4)cc23)c1F was tested, and the viability, T/C (compound 0.0316 µM) was 101% and 114%, the viability, T/C (compound 0.1 µM) was 98.5% and 97.8% and the viability, T/C (compound 0.316 µM) was 112% and 118%. For the same compound, the viability, T/C (compound 1 µM) was 107% and 111%, the viability, T/C (compound 3.16 µM) was 109% and 119% and the viability, T/C (compound 10 µM) was 3.67% and 1.89%. The IC50 (curve of compound) was 5930 nM and 6040 nM.
